Experimental data published in ChEMBL document CHEMBL1131960, “Simple mono-derivatisation of the aryl moiety of D4A and DDA-based phosphoramidate prodrugs significantly enhances their anti-HIV potency in cell culture” (Bioorg Med Chem Lett, 1999).
One block for each compound: values may come before it.

How the values were obtained:
[1] = Compound was evaluated for its ability to inhibit the growth of HIV-1 in CEM cell culture (CC50/EC50); assay type: functional, CCRF-CEM
CCRF-CEM [2] = assay: Compound was evaluated for its effective concentration (potency) to inhibit the growth of HIV-1 in CEM cell culture.; assay type: functional, cell-based; conditions: Homo sapiens
[3] = Compound was evaluated for its ability to inhibit the growth of HIV-2 in CEM cell culture (CC50/EC50); assay type: functional, CCRF-CEM
CCRF-CEM [4] = assay: Compound was evaluated for its effective concentration (potency) to inhibit the growth of HIV-2 in CEM cell culture.; assay type: functional, cell-based; conditions: Homo sapiens
CCRF-CEM [5] = assay: Compound was evaluated for its concentration (potency) to inhibit the growth of CEM cells.; assay type: functional; conditions: Homo sapiens
[6] = Compound was evaluated for its lipophilicity by 1-octanol/water (phosphate buffer, pH 7.0) and the partition coefficient (log P) was reported.; assay type: physicochemical
esterase = assay: Compound was evaluated for esterase half-life (t 1/2) period using Pig Liver Esterase (PLE) assay; assay type: ADME, Sus scrofa

SMILES: Nc1ncnc2c1ncn2[C@H]1CC[C@@H](CO)O1
SI [1]: >25
EC50 (CCRF-CEM [2]): 4 µM
SI [3]: >13
EC50 (CCRF-CEM [4]): 8 µM
CC50 (CCRF-CEM [5]): > 100 µM
logD [6]: -0.22

SMILES: Nc1ncnc2c1ncn2[C@H]1C=C[C@@H](CO)O1
SI [1]: 4.6
SI [3]: 4.6
CC50 (CCRF-CEM [5]): 91 µM
logD [6]: -0.36

SMILES: COC(=O)C(C)NP(=O)(OCC1CCC(n2cnc3c(N)ncnc32)O1)Oc1cccc(Br)c1 (stereo unspecified)
SI [1]: 243
EC50 (CCRF-CEM [2]): 0.0023 µM
SI [3]: 170
EC50 (CCRF-CEM [4]): 0.0033 µM
half-life (esterase): 75 h
CC50 (CCRF-CEM [5]): 0.56 µM
logD [6]: 1.71

SMILES: COC(=O)C(C)NP(=O)(OCC1C=CC(n2cnc3c(N)ncnc32)O1)Oc1ccc(I)cc1 (stereo unspecified)
SI [1]: 374
EC50 (CCRF-CEM [2]): 0.0023 µM
SI [3]: 506
EC50 (CCRF-CEM [4]): 0.0017 µM
half-life (esterase): 62 h
CC50 (CCRF-CEM [5]): 0.86 µM
logD [6]: 2.11

SMILES: COC(=O)C(C)NP(=O)(OCC1CCC(n2cnc3c(N)ncnc32)O1)Oc1cccc(I)c1 (stereo unspecified)
SI [1]: 195
EC50 (CCRF-CEM [2]): 0.0022 µM
SI [3]: 159
EC50 (CCRF-CEM [4]): 0.0027 µM
half-life (esterase): 62 h
CC50 (CCRF-CEM [5]): 0.43 µM
logD [6]: 2.07

Further compounds by falling EC50 (CCRF-CEM [2]), results first:

EC50 (CCRF-CEM [2]): 0.016 µM
EC50 (CCRF-CEM [4]): 0.035 µM
half-life (esterase): 301 h
logD [6]: 0.89
SMILES: COC(=O)C(C)NP(=O)(OCC1CCC(n2cnc3c(N)ncnc32)O1)Oc1ccccc1 (stereo unspecified)
SI [1]: 161
SI [3]: 73
CC50 (CCRF-CEM [5]): 2.57 µM

EC50 (CCRF-CEM [2]): 0.0055 µM
half-life (esterase): 301 h
logD [6]: 0.94
SMILES: COC(=O)C(C)NP(=O)(OCC1C=CC(n2cnc3c(N)ncnc32)O1)Oc1ccccc1 (stereo unspecified)
SI [1]: 691
SI [3]: 211
CC50 (CCRF-CEM [5]): 3.8 µM

EC50 (CCRF-CEM [2]): 0.0032 µM
EC50 (CCRF-CEM [4]): 0.0027 µM
half-life (esterase): 100 h
logD [6]: 1.72
SMILES: COC(=O)C(C)NP(=O)(OCC1C=CC(n2cnc3c(N)ncnc32)O1)Oc1ccc(Br)cc1 (stereo unspecified)
SI [1]: 263
SI [3]: 311
CC50 (CCRF-CEM [5]): 0.84 µM
